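The compound was tested at five concentrations on cells cultured in 96-well plates, with a 48-hour exposure period. TGI marks complete inhibition of growth.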
Legend:
Experiment in all cases: inhibition of tumour cell growth, NCI panel, 48 h
[1] = tested on: KM12 colon
[2] = tested on: IGROV1 ovarian
[3] = tested on: UACC-257 melanoma
[4] = tested on: NCI-H226 lung
[5] = tested on: RXF-631 renal
[6] = tested on: MOLT-4 leukemia
[7] = tested on: HCT-15 colon
[8] = tested on: SK-MEL-5 melanoma
[9] = tested on: RPMI-8226 leukemia
[10] = tested on: OVCAR-3 ovarian
[11] = tested on: M14 melanoma
[12] = tested on: DMS 273 small cell lung
[13] = tested on: NCI-H460 lung
[14] = tested on: SW-620 colon
[15] = tested on: M19-MEL melanoma
[16] = tested on: UO-31 renal
[17] = tested on: OVCAR-4 ovarian
[18] = tested on: SK-OV-3 ovarian
[19] = tested on: A498 renal
[20] = tested on: HCT-116 colon
[21] = tested on: SNB-19 CNS
[22] = tested on: SNB-78 CNS
[23] = tested on: SK-MEL-28 melanoma
[24] = tested on: TK-10 renal
[25] = tested on: KM20L2 colon
[26] = tested on: DMS 114 small cell lung
[27] = tested on: HOP-92 NSCLC
[28] = tested on: ACHN renal
[29] = tested on: SF-268 CNS
[30] = tested on: K-562 leukemia
[31] = tested on: OVCAR-8 ovarian
[32] = tested on: COLO 205 colon
[33] = tested on: EKVX NSCLC
[34] = tested on: XF 498 CNS
[35] = tested on: LOX IMVI melanoma
[36] = tested on: SK-MEL-2 melanoma
[37] = tested on: UACC-62 melanoma
[38] = tested on: CAKI-1 renal
[39] = tested on: U251 CNS
[40] = tested on: SF-539 CNS
[41] = tested on: LXFL 529 NSCLC
[42] = tested on: HCC-2998 colon
[43] = tested on: SNB-75 CNS
[44] = tested on: OVCAR-5 ovarian
[45] = tested on: HOP-62 NSCLC
[46] = tested on: NCI-H522 lung
[47] = tested on: RXF 393 renal
[48] = tested on: 786-0 renal
[49] = tested on: MALME-3M melanoma
[50] = tested on: SN12C renal
[51] = tested on: SF-295 CNS
[52] = tested on: NCI-H23 lung
[53] = tested on: A549 NSCLC
[54] = tested on: HL-60(TB) leukemia
[55] = tested on: CCRF-CEM leukemia
[56] = tested on: DLD-1 colon
[57] = tested on: HOP-18 NSCLC
[58] = tested on: HT29 colon
[59] = tested on: SR leukemia

Cc1cccc(N2C(=O)C(=O)C(c3nc4ccccc4s3)/C(=N/NC(=S)NN)C2=O)c1C (stereo not given)
TGI [1]: > 100 µM | TGI [2]: > 100 µM | TGI [3]: > 100 µM | TGI [4]: > 100 µM | TGI [5]: > 100 µM | TGI [6]: > 100 µM | TGI [7]: > 100 µM | TGI [8]: > 100 µM | TGI [9]: > 100 µM | TGI [10]: > 100 µM | TGI [11]: > 100 µM | TGI [12]: > 100 µM | TGI [13]: > 100 µM | TGI [14]: > 100 µM | TGI [15]: > 100 µM | TGI [16]: > 100 µM | TGI [17]: > 100 µM | TGI [18]: > 100 µM | TGI [19]: > 100 µM | TGI [20]: > 100 µM | TGI [21]: > 100 µM | TGI [22]: > 100 µM | TGI [23]: > 100 µM | TGI [24]: > 100 µM | TGI [25]: > 100 µM | TGI [26]: > 100 µM | TGI [27]: > 100 µM | TGI [28]: > 100 µM | TGI [29]: > 100 µM | TGI [30]: > 100 µM | TGI [31]: > 100 µM | TGI [32]: > 100 µM | TGI [33]: > 100 µM | TGI [34]: > 100 µM | TGI [35]: > 100 µM | TGI [36]: > 100 µM | TGI [37]: > 100 µM | TGI [38]: > 100 µM | TGI [39]: > 100 µM | TGI [40]: > 100 µM | TGI [41]: > 100 µM | TGI [42]: > 100 µM | TGI [43]: > 100 µM | TGI [44]: > 100 µM | TGI [45]: > 100 µM | TGI [46]: > 100 µM | TGI [47]: > 100 µM | TGI [48]: > 100 µM | TGI [49]: > 100 µM | TGI [50]: > 100 µM | TGI [51]: > 100 µM | TGI [52]: > 100 µM

O=S1(=O)CCCS(=O)(=O)C(c2ccccc2)=C1c1ccccc1
TGI [1]: 79 µM | TGI [2]: > 100 µM | TGI [3]: > 100 µM | TGI [4]: > 100 µM | TGI [5]: > 100 µM | TGI [6]: > 100 µM | TGI [7]: > 100 µM | TGI [8]: > 100 µM | TGI [9]: > 100 µM | TGI [10]: > 100 µM | TGI [11]: > 100 µM | TGI [13]: > 100 µM | TGI [14]: > 100 µM | TGI [53]: > 100 µM | TGI [15]: > 100 µM | TGI [16]: > 100 µM | TGI [17]: > 100 µM | TGI [18]: > 100 µM | TGI [19]: > 100 µM | TGI [54]: 44.6 µM | TGI [20]: > 100 µM | TGI [22]: > 100 µM | TGI [55]: > 100 µM | TGI [23]: > 100 µM | TGI [24]: > 100 µM | TGI [25]: 72.1 µM | TGI [26]: > 100 µM | TGI [27]: 85.3 µM | TGI [56]: > 100 µM | TGI [57]: > 100 µM | TGI [28]: > 100 µM | TGI [29]: > 100 µM | TGI [30]: > 100 µM | TGI [58]: > 100 µM | TGI [31]: > 100 µM | TGI [33]: > 100 µM | TGI [35]: > 100 µM | TGI [36]: > 100 µM | TGI [59]: > 100 µM | TGI [37]: > 100 µM | TGI [38]: > 100 µM | TGI [39]: > 100 µM | TGI [40]: > 100 µM | TGI [41]: > 100 µM | TGI [42]: 32.4 µM | TGI [43]: > 100 µM | TGI [44]: > 100 µM | TGI [45]: 96.8 µM | TGI [46]: 89.9 µM | TGI [48]: > 100 µM | TGI [49]: > 100 µM | TGI [50]: > 100 µM | TGI [52]: > 100 µM

COC(=O)C1C=NNC1C(=O)OC (stereo not given)
TGI [1]: > 100 µM | TGI [2]: > 100 µM | TGI [3]: > 100 µM | TGI [4]: > 100 µM | TGI [5]: > 100 µM | TGI [6]: > 100 µM | TGI [7]: > 100 µM | TGI [8]: > 100 µM | TGI [9]: > 100 µM | TGI [10]: > 100 µM | TGI [11]: > 100 µM | TGI [12]: > 100 µM | TGI [13]: > 100 µM | TGI [14]: > 100 µM | TGI [53]: > 100 µM | TGI [15]: > 100 µM | TGI [16]: > 100 µM | TGI [17]: > 100 µM | TGI [18]: > 100 µM | TGI [19]: > 100 µM | TGI [54]: > 100 µM | TGI [20]: > 100 µM | TGI [21]: > 100 µM | TGI [22]: > 100 µM | TGI [55]: > 100 µM | TGI [24]: > 100 µM | TGI [25]: > 100 µM | TGI [26]: > 100 µM | TGI [57]: > 100 µM | TGI [28]: > 100 µM | TGI [29]: > 100 µM | TGI [30]: > 100 µM | TGI [58]: > 100 µM | TGI [31]: > 100 µM | TGI [32]: > 100 µM | TGI [33]: > 100 µM | TGI [34]: > 100 µM | TGI [35]: > 100 µM | TGI [36]: > 100 µM | TGI [37]: > 100 µM | TGI [38]: > 100 µM | TGI [39]: > 100 µM | TGI [40]: > 100 µM | TGI [41]: > 100 µM | TGI [42]: > 100 µM | TGI [43]: > 100 µM | TGI [44]: > 100 µM | TGI [45]: > 100 µM | TGI [46]: > 100 µM | TGI [47]: > 100 µM | TGI [48]: > 100 µM | TGI [49]: > 100 µM | TGI [50]: > 100 µM | TGI [51]: > 100 µM | TGI [52]: > 100 µM

— PubChem BioAssay (NCI)
